Results taken from US12581252B2, “Substituted pyrrolo[3,4-b]pyridines as PI3K-α inhibitors” (Relay Therapeutics, Inc., priority 2020, dated 2026).

How the values were obtained:
[1] = target: H1047R PIK3CA enzyme (Homo sapiens, UniProt P42336, H1047R); assay: ADP-Glo Biochemical PIK3CA Kinase Assay
[2] = cells; conditions: Homo sapiens, MCF-10A, read-out: MCF10A IC50

Sequence of H1047R PIK3CA enzyme (P42336 whole entry H1047R): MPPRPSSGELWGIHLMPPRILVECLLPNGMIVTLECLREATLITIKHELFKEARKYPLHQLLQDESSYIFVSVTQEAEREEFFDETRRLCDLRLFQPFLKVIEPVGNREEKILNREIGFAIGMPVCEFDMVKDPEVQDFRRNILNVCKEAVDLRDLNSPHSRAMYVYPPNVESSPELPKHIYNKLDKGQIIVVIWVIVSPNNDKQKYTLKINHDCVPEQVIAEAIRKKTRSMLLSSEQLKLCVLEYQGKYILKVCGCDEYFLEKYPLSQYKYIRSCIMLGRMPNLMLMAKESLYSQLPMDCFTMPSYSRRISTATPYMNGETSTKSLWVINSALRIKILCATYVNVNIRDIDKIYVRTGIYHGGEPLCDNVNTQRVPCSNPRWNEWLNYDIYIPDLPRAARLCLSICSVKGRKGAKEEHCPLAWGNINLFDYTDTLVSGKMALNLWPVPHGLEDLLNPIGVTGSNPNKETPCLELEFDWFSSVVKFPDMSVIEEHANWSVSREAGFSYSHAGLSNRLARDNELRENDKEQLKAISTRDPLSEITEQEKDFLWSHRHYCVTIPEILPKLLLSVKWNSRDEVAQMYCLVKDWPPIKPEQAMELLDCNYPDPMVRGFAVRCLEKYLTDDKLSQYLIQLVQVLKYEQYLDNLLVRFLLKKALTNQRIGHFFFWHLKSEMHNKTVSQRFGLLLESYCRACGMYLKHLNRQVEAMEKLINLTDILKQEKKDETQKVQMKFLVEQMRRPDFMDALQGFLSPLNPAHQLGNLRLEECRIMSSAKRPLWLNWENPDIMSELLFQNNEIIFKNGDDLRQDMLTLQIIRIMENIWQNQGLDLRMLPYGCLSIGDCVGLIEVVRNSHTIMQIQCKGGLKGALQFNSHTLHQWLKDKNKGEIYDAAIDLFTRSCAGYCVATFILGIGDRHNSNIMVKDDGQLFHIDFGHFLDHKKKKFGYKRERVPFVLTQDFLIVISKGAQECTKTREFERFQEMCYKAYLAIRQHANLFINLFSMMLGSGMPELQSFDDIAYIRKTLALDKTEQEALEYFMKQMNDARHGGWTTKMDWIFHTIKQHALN
Sequence of H1047R PIK3CA enzyme (P27986 whole entry partner): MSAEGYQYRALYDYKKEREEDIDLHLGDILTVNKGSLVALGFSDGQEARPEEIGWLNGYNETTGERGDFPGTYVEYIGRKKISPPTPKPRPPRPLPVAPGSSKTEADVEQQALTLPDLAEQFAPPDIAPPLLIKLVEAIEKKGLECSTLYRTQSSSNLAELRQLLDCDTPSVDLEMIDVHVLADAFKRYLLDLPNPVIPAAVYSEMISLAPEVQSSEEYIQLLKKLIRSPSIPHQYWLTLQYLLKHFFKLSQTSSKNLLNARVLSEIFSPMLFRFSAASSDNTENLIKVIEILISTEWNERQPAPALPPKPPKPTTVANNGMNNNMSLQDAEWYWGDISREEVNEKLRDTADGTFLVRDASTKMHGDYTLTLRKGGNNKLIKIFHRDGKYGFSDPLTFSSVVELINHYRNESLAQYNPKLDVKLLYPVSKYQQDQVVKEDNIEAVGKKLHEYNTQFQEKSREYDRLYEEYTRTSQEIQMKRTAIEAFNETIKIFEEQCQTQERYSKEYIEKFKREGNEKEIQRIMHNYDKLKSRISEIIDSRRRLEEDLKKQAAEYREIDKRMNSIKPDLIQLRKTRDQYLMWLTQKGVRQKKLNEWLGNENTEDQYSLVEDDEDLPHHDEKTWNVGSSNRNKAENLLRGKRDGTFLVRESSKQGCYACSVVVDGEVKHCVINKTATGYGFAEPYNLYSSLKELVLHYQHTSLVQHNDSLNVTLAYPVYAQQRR

Structure (SMILES) | IC50 [1] | IC50 [2]
O=C1NC(c2cc(F)ccc2Cl)c2c(NC(=O)C34CC5CC(C3)CC(C(F)(F)F)(C5)C4)cccc21 (stereo not drawn) [Compound I-1073] | ≤ 0.1 µM | < 1 µM
Cn1ccnc1Nc1cc(NC(=O)c2cc(F)cc(C(F)(F)F)c2)c2c(c1)C(=O)NC2c1cc(F)ccc1Cl (stereo not drawn) [Compound I-1075] | ≤ 0.1 µM | < 1 µM
Cn1nc(-c2cc(NC(=O)c3cc(F)cc(C(F)(F)F)c3)c3c(c2)C(=O)NC3c2cc(F)ccc2Cl)ccc1=O (stereo not drawn) [Compound I-1076] | ≤ 0.1 µM | < 1 µM
O=C(Nc1cc(-c2cn[nH]c2)cc2c1[C@H](c1cc(F)ccc1Cl)NC2=O)c1cc(F)cc(C(F)(F)F)c1 [Compound I-1078] | ≤ 0.1 µM | < 1 µM
CC(C)(O)Cc1cc(NC(=O)c2cc(F)cc(Cl)c2)c2c(c1)C(=O)N[C@H]2c1cc(F)ccc1Cl [Compound I-1080] | ≤ 0.1 µM | < 1 µM
O=C(Nc1cc(CS(=O)(=O)C2CC2)cc2c1C(c1cc(F)ccc1Cl)NC2=O)c1cc(F)cc(C(F)(F)F)c1 (stereo not drawn) [Compound I-1081] | ≤ 0.1 µM | < 1 µM
Cn1nccc1CNc1cc(NC(=O)c2cc(F)cc(C(F)(F)F)c2)c2c(c1)C(=O)NC2c1cc(F)ccc1Cl (stereo not drawn) [Compound I-1082] | ≤ 0.1 µM | < 1 µM
Cn1cnnc1Nc1cc(NC(=O)c2cc(F)cc(C(F)(F)F)c2)c2c(c1)C(=O)NC2c1cc(F)ccc1Cl (stereo not drawn) [Compound I-1083] | ≤ 0.1 µM | 1 to 5 µM
O=C(Nc1cc(-c2cscn2)cc2c1[C@H](c1cc(F)ccc1Cl)NC2=O)c1cc(F)cc(C(F)(F)F)c1 [Compound I-1084] | ≤ 0.1 µM | < 1 µM
O=C(Nc1cc(-n2cncn2)cc2c1C(c1cc(F)ccc1Cl)NC2=O)c1cc(F)cc(C(F)(F)F)c1 (stereo not drawn) [Compound I-1086] | ≤ 0.1 µM | < 1 µM
COc1ncccc1-c1cc(NC(=O)c2cc(F)cc(C(F)(F)F)c2)c2c(c1)C(=O)NC2c1cc(F)ccc1Cl (stereo not drawn) [Compound I-1091] | ≤ 0.1 µM | < 1 µM
O=C(Nc1cc(-c2ccc3ncncc3c2)cc2c1C(c1cc(F)ccc1Cl)NC2=O)c1cc(F)cc(C(F)(F)F)c1 (stereo not drawn) [Compound I-1093] | ≤ 0.1 µM | < 1 µM
O=C(Nc1cc(-c2cncnc2)cc2c1[C@H](c1cc(F)ccc1Cl)NC2=O)c1cc(F)cc(C(F)(F)F)c1 [Compound I-1095] | ≤ 0.1 µM | < 1 µM
CC(C)(O)Cn1cc(-c2cc(NC(=O)c3cc(F)cc(C(F)(F)F)c3)c3c(c2)C(=O)N[C@H]3c2cc(F)ccc2Cl)cn1 [Compound I-1097] | ≤ 0.1 µM | < 1 µM
N#Cc1cnccc1-c1cc(NC(=O)c2cc(F)cc(C(F)(F)F)c2)c2c(c1)C(=O)NC2c1cc(F)ccc1Cl (stereo not drawn) [Compound I-1098] | ≤ 0.1 µM | < 1 µM
O=C(Nc1cc(Nc2nnco2)cc2c1C(c1cc(F)ccc1Cl)NC2=O)c1cc(F)cc(C(F)(F)F)c1 (stereo not drawn) [Compound I-1099] | ≤ 0.1 µM | < 1 µM
O=C(Nc1cc(-c2nc3ccccc3[nH]2)cc2c1C(c1cc(F)ccc1Cl)NC2=O)c1cc(F)cc(C(F)(F)F)c1 (stereo not drawn) [Compound I-1101] | ≤ 0.1 µM | < 1 µM
Nc1cnc(-c2cc(NC(=O)c3cc(F)cc(C(F)(F)F)c3)c3c(c2)C(=O)NC3c2cc(F)ccc2Cl)cn1 (stereo not drawn) [Compound I-1102] | ≤ 0.1 µM | < 1 µM
O=C(Nc1cc(C2CN(c3ccncn3)C2)cc2c1C(c1cc(F)ccc1Cl)NC2=O)c1cc(F)cc(C(F)(F)F)c1 (stereo not drawn) [Compound I-1104] | ≤ 0.1 µM | < 1 µM
COc1nccc(-c2cc(NC(=O)c3cc(F)cc(C(F)(F)F)c3)c3c(c2)C(=O)NC3c2cc(F)ccc2Cl)n1 (stereo not drawn) [Compound I-1105] | ≤ 0.1 µM | < 1 µM

Structure (SMILES) | IC50 [1] | IC50 [2]
O=C1N[C@@H](c2cc(F)ccc2Cl)c2c(Nc3nccc4c(C(F)(F)F)cc(F)cc34)cc(Br)cc21 [Compound I-1109] | ≤ 0.1 µM | < 1 µM
O=C(Nc1cc(Nc2cc[nH]n2)cc2c1C(c1cc(F)ccc1Cl)NC2=O)c1cc(F)cc(C(F)(F)F)c1 (stereo not drawn) [Compound I-1112] | ≤ 0.1 µM | < 1 µM
Cc1nc2ccc(-c3cc(NC(=O)c4cc(F)cc(C(F)(F)F)c4)c4c(c3)C(=O)NC4c3cc(F)ccc3Cl)cn2n1 (stereo not drawn) [Compound I-1123] | ≤ 0.1 µM | < 1 µM
Cc1nc2ncc(-c3cc(NC(=O)c4cc(F)cc(C(F)(F)F)c4)c4c(c3)C(=O)NC4c3cc(F)ccc3Cl)cn2n1 (stereo not drawn) [Compound I-1124] | ≤ 0.1 µM | < 1 µM
O=C(Nc1cc(-n2cc(F)cn2)cc2c1C(c1cc(F)ccc1Cl)NC2=O)c1cc(F)cc(C(F)(F)F)c1 (stereo not drawn) [Compound I-1146] | ≤ 0.1 µM | < 1 µM
COc1c(F)cccc1-c1cc(NC(=O)c2cc(F)cc(C(F)(F)F)c2)c2c(c1)C(=O)NC2c1cc(F)ccc1Cl (stereo not drawn) [Compound I-1156] | ≤ 0.1 µM | < 1 µM
N#CN1CC(c2cc(NC(=O)c3cc(F)cc(C(F)(F)F)c3)c3c(c2)C(=O)NC3c2cc(F)ccc2Cl)C1 (stereo not drawn) [Compound I-1157] | ≤ 0.1 µM | 5 to 10 µM
N#CCN1CC(c2cc(NC(=O)c3cc(F)cc(C(F)(F)F)c3)c3c(c2)C(=O)NC3c2cc(F)ccc2Cl)C1 (stereo not drawn) [Compound I-1158] | ≤ 0.1 µM | < 1 µM
CS(=O)(=O)Nc1cc(NC(=O)c2cc(F)cc(C(F)(F)F)c2)c2c(c1)C(=O)NC2c1cc(F)ccc1Cl (stereo not drawn) [Compound I-1159] | ≤ 0.1 µM | < 1 µM
N#CCOc1cc(NC(=O)c2cc(F)cc(C(F)(F)F)c2)c2c(c1)C(=O)NC2c1cc(F)ccc1Cl (stereo not drawn) [Compound I-1160] | ≤ 0.1 µM | < 1 µM
O=C1NC(c2cc(F)ccc2Cl)c2c(NC(=O)c3cc(F)cc4c(Cl)c[nH]c34)cccc21 (stereo not drawn) [Compound I-1161] | 0.1 to 0.5 µM | 1 to 5 µM
COc1nccc(N2CC(c3cc(NC(=O)c4cc(F)cc(C(F)(F)F)c4)c4c(c3)C(=O)NC4c3cc(F)ccc3Cl)C2)n1 (stereo not drawn) [Compound I-1162] | ≤ 0.1 µM | < 1 µM
C#Cc1ccccc1-c1cc(NC(=O)c2cc(F)cc(C(F)(F)F)c2)c2c(c1)C(=O)NC2c1cc(F)ccc1Cl (stereo not drawn) [Compound I-1163] | ≤ 0.1 µM | < 1 µM
O=C(Nc1cc(N2CCOCC2)cc2c1C(c1cc(F)ccc1Cl)NC2=O)c1cc(F)cc(C(F)(F)F)c1 (stereo not drawn) [Compound I-1164] | ≤ 0.1 µM | < 1 µM
O=C(Nc1cc(-c2cnn(-c3ncccn3)c2)cc2c1C(c1cc(F)ccc1Cl)NC2=O)c1cc(F)cc(C(F)(F)F)c1 (stereo not drawn) [Compound I-1418] | ≤ 0.1 µM | < 1 µM
O=C(Nc1cc(-c2cn3ncnc3cn2)cc2c1[C@H](c1cc(F)ccc1Cl)NC2=O)c1cc(F)cc(C(F)(F)F)c1 [Compound I-1441] | ≤ 0.1 µM | < 1 µM
O=C1N[C@@H](c2cc(F)ccc2Cl)c2c(NC(=O)c3csc4ccccc34)cc(-c3ccc4ncnn4c3)cc21 [Compound I-1684] | ≤ 0.1 µM | < 1 µM
O=C1N[C@@H](c2cc(F)ccc2Cl)c2c(NC(=O)[C@H]3CCC[C@@H](C(F)(F)F)C3)cc(-c3ccc4ncnn4c3)cc21 [Compound I-2029] | ≤ 0.1 µM | < 1 µM
CNc1nc2ccc(-c3cc(NC(=O)c4cc(F)cc(C(F)(F)F)c4)c4c(c3)C(=O)NC4c3cc(F)ccc3Cl)cn2n1 (stereo not drawn) [Compound I-2125] | ≤ 0.1 µM | < 1 µM
